Data reported in patent publication US10758549B2, “Compositions of obeticholic acid and methods of use” (Intercept Pharmaceuticals, Inc., priority 2015, dated 2020).

Columns and labels:
pKa = format: physicochemical
patients with PBC = assay: Example 9: randomized double-blind placebo-controlled 12-month trial of OCA in PBC; format: in vivo, human; conditions: for Patients who achieved response (ALP<1.67×ULN, ALP reduction ≥15%, TB≤ULN) at Month 6 / Patients who achieved response (ALP<1.67×ULN, ALP reduction ≥15%, TB≤ULN) at Month 12: ITT; for patients who experienced an increase in ALP: 12 months (placebo 36%); for Response at Month 6 [1] / Response at Month 12 [1]: Table 25 analysis; for ALP < 1.67 × ULN and Decrease ≥ 15% at Month 6 [3] / ALP < 1.67 × ULN and Decrease ≥ 15% at Month 12 [3] / ALP < 1.67 × ULN at Month 6 [3] / ALP < 1.67 × ULN at Month 12 [3] / Decrease in ALP ≥ 15% at Month 6 [3] / Decrease in ALP ≥ 15% at Month 12 [3]: patients with Baseline ALP ≥ 1.67 × ULN but < 2.0 × ULN; for ALP < 2.0 × ULN and Decrease ≥ 40% at Month 6 [2] / ALP < 2.0 × ULN and Decrease ≥ 40% at Month 12 [2] / ALP < 2.0 × ULN at Month 6 [2] / ALP < 2.0 × ULN at Month 12 [2] / Decrease in ALP ≥ 40% at Month 6 [2] / Decrease in ALP ≥ 40% at Month 12 [2]: patients with Baseline ALP ≥ 2.0 × ULN
Experimental: This example describes a randomized, double-blind, placebo-controlled, parallel-group, 12-month trial evaluating OCA in patients with PBC as a monotherapy.
Patients with inflammatory bowel disease or who had undergone gastric bypass procedures were excluded (gastric lap band was acceptable). • Medical conditions that could cause non-hepatic increases in ALP (e.g., Paget's disease)
ALP and TB composite response criteria were measured; a patient was designated as a responder if all three of the following conditions were met: • A value of ALP<1.67×ULN • ALP reduction from baseline ? 15% • A value of TB<ULN
The absolute and percent change from Baseline in ALP, gamma-glutamyl transferase (GGT), alanine aminotransferase (ALT), AST, total bilirubin, conjugated (direct) bilirubin, albumin, prothrombin time and international normalized ratio (INR) at all-time points was measured. The percentage of patients with a decrease in ALP of ? 10%, ? 15%, ? 20%, and ? 40% from Baseline or ? ULN at month 12 was measured. The percentage of patients achieving the following biochemical response criteria was also measured: • ALP ? 3×ULN and AST ? 2×ULN and bilirubin ? ULN ((Corpechot 2008);
Bile acid sequestrant (BAS) concomitant exposure. The primary analysis set used for all efficacy analyses, along with the summarization of disposition along with demographics and baseline characteristics, was the ‘Intent-to-Treat’ (ITT) analysis set. This analysis set included all randomized patients who received at least one dose of blinded study drug. When utilizing this analysis set, patients were analyzed according to the treatment group that they were randomized to regardless of the actual treatment received. It should be noted that all but one randomized patient received at least one dose of blinded study drug.
A Cochran-Mantel-Haenszel (CMH) test which adjusted for both randomization stratification variables as described above, was used for pre-specified analysis. In tandem with the CMH test, a Breslow-Day test was also conducted, to test for the homogeneity of the treatment effect across the different randomization strata.

[1] = Hepatic impairment study, single dose of 10 mg OCA; format: in vivo, human; conditions: hepatically-impaired patients
Source text: The mean total OCA concentration-time profiles in this study are shown in FIG. 16 and the mean PK parameters (Cmax and AUCt) for total OCA in plasma for normal healthy volunteers and subjects with various categories of hepatic impairment are quantified in Table 27.
Development of the PK model for the physiological changes associated with hepatic impairment used 928 plasma sample concentrations of OCA, glyco-OCA, and tauro-OCA from 32 subjects-8 subjects each with mild, moderate, severe hepatic impairment and normal hepatic function. Subjects were administered a single 10 mg dose of OCA. […] Participants were 90.6% white, 3.1% black, 3.1% Asian, and 3.1% other. Mean Child-Pugh Score was 8.0 (2.0) (Child-Pugh Score: Class A/Mild 5-6 points, Class B/Moderate 7-9 points, Class C/Severe 10-15 points). The percentage of BLQ samples with imputed concentrations was 16.8%, 5.4%, and 9.6% for OCA, glyco-OCA, and tauro-OCA, respectively.

Plasma protein binding = format: in vitro ADME; conditions: human
[2] = 10 mg OCA (N = 73), listed as Obeticholic acid

With `CC[C@H]1[C@@H](O)[C@@H]2[C@H](CC[C@]3(C)[C@@H]([C@H](C)CCC(=O)O)CC[C@@H]23)[C@@]2(C)CC[C@@H](O)C[C@@H]12` [OCA, 3α,7α-dihydroxy-6α-ethyl-5β-cholan-24-oic acid] the pKa (pKa) was 4.82, the “ALP Absolute Change from Baseline to Month 12 (U/L), Mean” value (patients with PBC; 10 mg OCA) was −11|7.1 U/L and the “ALP Absolute Change from Baseline to Month 12 (U/L), Median” value (patients with PBC; 10 mg OCA) was −99.0 U/L. For the same molecule, the “ALP Percentage Change from Baseline to Month 12 (%), Mean” value (patients with PBC; 10 mg OCA) was −36.4%, the “ALP Percentage Change from Baseline to Month 12 (%), Median” value (patients with PBC; 10 mg OCA) was −38.3% and the “Month 12 ALP Concentration (U/L), Mean” value (patients with PBC; 10 mg OCA) was 191.2 U/L. For the same molecule, the “Month 12 ALP Concentration (U/L), Median” value (patients with PBC; 10 mg OCA) was 181.7 U/L, the “Month 12 ALP Concentration (×ULN), Mean” value (patients with PBC; 10 mg OCA) was 1.606 ×ULN and the “Month 12 ALP Concentration (×ULN), Median” value (patients with PBC; 10 mg OCA) was 1.527 ×ULN. For the same molecule, the “Patients with ALP < 1.67 × ULN at Month 12” value (patients with PBC; 10 mg OCA (N = 73)) was “(54.8%)”, the “Patients with Decrease in ALP ≥ 10% at Month 12” value (patients with PBC; 10 mg OCA (N = 73)) was “(83.6%)” and the “Patients with Decrease in ALP ≥ 15% at Month 12” value (patients with PBC; 10 mg OCA (N = 73)) was “(78.1%)”. The “Patients with Decrease in ALP ≥ 20% at Month 12” value (patients with PBC; 10 mg OCA (N = 73)) was “(74.0%)”, the “Patients with Decrease in ALP ≥ 40% at Month 12” value (patients with PBC; 10 mg OCA (N = 73)) was “(34.3%)” and the “Patients who achieved response (ALP<1.67×ULN, ALP reduction ≥15%, TB≤ULN) at Month 6” value (patients with PBC; 10 mg OCA (N = 73)) was 37 (50.7%). For the same molecule, the “Patients who achieved response (ALP<1.67×ULN, ALP reduction ≥15%, TB≤ULN) at Month 6” value (patients with PBC; [2]) was 37 (51) %, the “Patients who achieved response (ALP<1.67×ULN, ALP reduction ≥15%, TB≤ULN) at Month 12” value (patients with PBC; [2]) was 34 (47) % and the “Patients with Decrease in ALP ≥ 15% at Month 12” value (patients with PBC; 10 mg OCA (N = 73), listed as obeticholic acid) was 77%. The “patients who experienced an increase in ALP” value (patients with PBC; 10 mg obeticholic acid) was 2%, the “up-titrated patients who met the composite endpoint” value (patients with PBC; 33 patients titrated from 5 mg to 10 mg at Month 6) was 39% and the “ALP Absolute Change from Baseline to Month 12 (U/L), Median” value (patients with PBC; OCA Titration) was −85.5 U/L. For the same molecule, the “ALP Percentage Change from Baseline to Month 12 (%), Mean” value (patients with PBC; OCA Titration) was −30.5%, the “ALP Percentage Change from Baseline to Month 12 (%), Median” value (patients with PBC; OCA Titration) was −31.5% and the “Month 12 ALP Concentration (U/L), Mean” value (patients with PBC; OCA Titration) was 219.5 U/L. For the same molecule, the “Month 12 ALP Concentration (U/L), Median” value (patients with PBC; OCA Titration) was 196.6 U/L, the “Month 12 ALP Concentration (×ULN), Mean” value (patients with PBC; OCA Titration) was 1.851 ×ULN and the “Month 12 ALP Concentration (×ULN), Median” value (patients with PBC; OCA Titration) was 1.661 ×ULN. For the same molecule, the “Patients with ALP < 1.67 × ULN at Month 12” value (patients with PBC; OCA Titration (N = 70)) was “(47.1%)”, the “Patients with Decrease in ALP ≥ 10% at Month 12” value (patients with PBC; OCA Titration (N = 70)) was “(78.6%)” and the “Patients with Decrease in ALP ≥ 15% at Month 12” value (patients with PBC; OCA Titration (N = 70)) was “(77.1%)”. For the same molecule, the “Patients with Decrease in ALP ≥ 20% at Month 12” value (patients with PBC; OCA Titration (N = 70)) was “(70.0%)”, the “Patients with Decrease in ALP ≥ 40% at Month 12” value (patients with PBC; OCA Titration (N = 70)) was “(30.0%)” and the “Patients with Decrease in ALP ≥ 15% at Month 12” value (patients with PBC; OCA Titration (N = 70), listed as obeticholic acid) was 77%. For the same molecule, the “Patients who achieved response (ALP<1.67×ULN, ALP reduction ≥15%, TB≤ULN) at Month 6” value (patients with PBC; OCA Titration, 5 mg (N = 70)) was 24 (34.3%), the “Patients who achieved response (ALP<1.67×ULN, ALP reduction ≥15%, TB≤ULN) at Month 6” value (patients with PBC; OCA Titration, 5 mg (N = 70), listed as Obeticholic acid) was 24 (34) % and the “Patients who achieved response (ALP<1.67×ULN, ALP reduction ≥15%, TB≤ULN) at Month 12” value (patients with PBC; OCA Titration, 5 mg or 10 mg (N = 70), listed as Obeticholic acid) was 32 (46) %. For the same molecule, the “Response at Month 6 [1]” value (patients with PBC; 10 mg OCA (N = 60)) was “(41.7%)”, the “Response at Month 12 [1]” value (patients with PBC; 10 mg OCA (N = 60)) was “(43.3%)” and the “Response at Month 6 [1]” value (patients with PBC; OCA Titration (N = 60)) was “(35.0%)”. The “Response at Month 12 [1]” value (patients with PBC; OCA Titration (N = 60)) was “(38.3%)”, the “responders who became non-responders” value (patients with PBC; continued dosing of 5 mg QD, month 6 to month 12) was 19% and the “ALP < 1.67 × ULN and Decrease ≥ 15% at Month 6 [3]” value (patients with PBC; 10 mg OCA) was “(88.9%)”. The “ALP < 1.67 × ULN and Decrease ≥ 15% at Month 12 [3]” value (patients with PBC; 10 mg OCA) was “(77.8%)”, the “ALP < 1.67 × ULN at Month 6 [3]” value (patients with PBC; 10 mg OCA) was “(94.4%)” and the “ALP < 1.67 × ULN at Month 12 [3]” value (patients with PBC; 10 mg OCA) was “(88.9%)”. For the same molecule, the “Decrease in ALP ≥ 15% at Month 6 [3]” value (patients with PBC; 10 mg OCA) was “(88.9%)”, the “Decrease in ALP ≥ 15% at Month 12 [3]” value (patients with PBC; 10 mg OCA) was “(77.8%)” and the “ALP < 1.67 × ULN and Decrease ≥ 15% at Month 6 [3]” value (patients with PBC; OCA Titration) was “(76.9%)”. The “ALP < 1.67 × ULN and Decrease ≥ 15% at Month 12 [3]” value (patients with PBC; OCA Titration) was “(76.9%)”, the “ALP < 1.67 × ULN at Month 6 [3]” value (patients with PBC; OCA Titration) was “(76.9%)” and the “ALP < 1.67 × ULN at Month 12 [3]” value (patients with PBC; OCA Titration) was “(84.6%)”. For the same molecule, the “Decrease in ALP ≥ 15% at Month 6 [3]” value (patients with PBC; OCA Titration) was “(84.6%)”, the “Decrease in ALP ≥ 15% at Month 12 [3]” value (patients with PBC; OCA Titration) was “(76.9%)” and the “ALP < 2.0 × ULN and Decrease ≥ 40% at Month 6 [2]” value (patients with PBC; 10 mg OCA) was “(21.4%)”. For the same molecule, the “ALP < 2.0 × ULN and Decrease ≥ 40% at Month 12 [2]” value (patients with PBC; 10 mg OCA) was “(28.6%)”, the “ALP < 2.0 × ULN at Month 6 [2]” value (patients with PBC; 10 mg OCA) was “(71.4%)” and the “ALP < 2.0 × ULN at Month 12 [2]” value (patients with PBC; 10 mg OCA) was “(69.1%)”. For the same molecule, the “Decrease in ALP ≥ 40% at Month 6 [2]” value (patients with PBC; 10 mg OCA) was “(23.8%)”, the “Decrease in ALP ≥ 40% at Month 12 [2]” value (patients with PBC; 10 mg OCA) was “(31.0%)” and the “ALP < 2.0 × ULN and Decrease ≥ 40% at Month 6 [2]” value (patients with PBC; OCA Titration) was “(23.4%)”. The “ALP < 2.0 × ULN and Decrease ≥ 40% at Month 12 [2]” value (patients with PBC; OCA Titration) was “(27.7%)”, the “ALP < 2.0 × ULN at Month 6 [2]” value (patients with PBC; OCA Titration) was “(51.1%)” and the “ALP < 2.0 × ULN at Month 12 [2]” value (patients with PBC; OCA Titration) was “(59.6%)”. For the same molecule, the “Decrease in ALP ≥ 40% at Month 6 [2]” value (patients with PBC; OCA Titration) was “(27.7%)”, the “Decrease in ALP ≥ 40% at Month 12 [2]” value (patients with PBC; OCA Titration) was “(34.0%)” and the “patients who experienced an increase in ALP” value (patients with PBC; titration obeticholic acid) was 5%. The “plasma OCA exposures versus healthy subjects” value [1] was > 10 fold and the fraction unbound (Plasma protein binding) was < 0.01.
